{
  "source": "patent US8592421B2",
  "about": "“Cyclic bioisosters of purine system derivatives and a pharmaceutical composition based thereon” (priority 2003, dated 2013)",
  "key": {"thrombocytes": {"system": "thrombocytes", "assay": "ADP-induced aggregation of thrombocytes in vitro (Born method, plasma enriched with thrombocytes)", "type": "cell-based, rabbit", "conditions": "3-minute incubation, ADP 10^−5 M", "method": "The aggregation of thrombocytes was studied by the Born method based on determination of the changes in the optical density of plasma enriched with thrombocytes after its incubation with an aggregation inductor.\nAdenozinediphosphoric acid (ADP) was selected as an aggregation inductor, which in fact is an aggregation generator. Use was made of a sample (registration number 885) of the Sigma Diagnostics Company (USA) in final concentration of 10^−5 M.\nThe experiments were carried out on male rabbits of the “Chinchilla” breed having a mass of 2.7±0.3 kg. 18-24 hours prior to the experiment they were deprived of feed while preserving free access to water.\nTo obtain plasma enriched with thrombocytes, blood was taken from a cut of a marginal vein of the rabbit ear, the sample was stabilized with 3.8% of sodium citrate solution in a ratio of 9:1 and centrifuged at 200 g (1000 rev/min) for 10 minutes. The top supernatant layer enriched with thrombocytes was transferred by an automatic dropper into a silicone test tube and kept at 37° C. The plasma enriched with thrombocytes contained, on the average, […]. If this content exceeded the specified 3×10^8 blood platelets in 1 liter, this sample was diluted to the necessary concentration with plasma deprived of thrombocytes, which was obtained by centrifuging blood at 650 g during 10 minutes.\nThe measurements of the optical density of the samples were made on two-channel aggregometer of the “Chronolog” Company (USA). A flask containing 490 mkl of plasma rich with thrombocytes was placed in a device, into which a magnetic agitator covered with Teflon was lowered. The index of maximum amplitude of aggregation (MA) in percent of a fall of the plasma optical density under effect of the aggregation inductor was recorded. The control index MA of plasma was compared with the MA of plasma incubated for 3 minutes with different concentrations of the compounds: from 10^−3 to 10^−7 in vitro experiments or with plasma obtained 15, 30, 60 and 120 minutes after intravenous administration of different doses of the compounds in vivo experiments.\nThe process of aggregation of thrombocytes was recorded with the help of a computer; on the monitor screen the there were depicted curves reflecting changes of the optical density of the plasma enriched which was taken as a standard 100% compared to the optical density of the non-thrombocyte plasma taken for 0% content of thrombocytes.\nUnder in vitro conditions a flask was filled with blood plasma enriched with thrombocytes, to which an aggregation inductor ADP was added at a concentration of 10^−5 M, incubated for 3 minutes, and then the compounds according to the invention were introduced directly into the flask. Their action by aggregation of thrombocytes was studied after 3-minute incubation in a wide range of concentrations from 10^−3 to 10^−7 M to minimum concentration of 10^−7M not inducing no effect of suppressing the aggregation."}, "[1]": {"assay": "Electrochemical activity: polarographic reduction on mercury dripping electrode", "type": "physicochemical", "conditions": "for i: 2.0% sodium chloride background, 9·10^−4 M; for i / −E1/2: 37° C., forward trace, average for the group of compounds; for −E1/2: vs SCE"}, "[2]": {"system": "embryonic fibroblasts of mouse NIH-3T3", "assay": "Effect on endocellular pHi of fibroblasts (microspectrofluorimetry with FDA / BCECF-AM)", "type": "cell-based", "conditions": "10 mkM in medium with serum", "method": "The effect of the compounds according to the invention on the endocellular pH, embryonic fibroblasts of mouse NIH-3T3 supplied by the All-Russian Collection of Cellular Cultures of the Institute of Cytology of the Russian Academy of Sciences St. Petersburg was investigated. The cells were grown in the DMEM (Sigma) medium containing 2.2 g/l of sodium bicarbonate with addition of 80.0 mkg/ml of gentamicin and 10.0% embryonal veal serum at a temperature of 37° C. in an atmosphere containing 5.0% of carbon dioxide. For these experiments use was also made of a medium buffer with 5.0 mM of HEPES and 15.0 mM of sodium bicarbonate without serum or with addition of 5.0% serum. The cells were calculated with the help of a hemocytometer. A share of the dead cells was determined by colouring trypan blue.\nThe measurements of the endocellular pHi were carried out with the help of colorants FDA (Sigma) and BCECF-AM (Calbiochem) on a microspectrofluorimeter by a standard technique (Koshevoy Yu. V., Akatov V. S., Grobova M. E. Microspectrofluorimeter for measuring endocellular pH (micro pH)”. Devices and equipment for studies in the field of physical-and-chemical biology and biotechnology. Pushchino, 1990. P. 8-14).\nThe cells at a temperature of 37° C. were colored within 5 minutes with 5.0 mkM PDA that before the colouring was prepared from a 10.0 mM solution in acetone by dilution for 30 minutes in a phosphatic buffer to 0.1 mM or 2.0 mkM 1.0 mM solution BCECF-AM in DMSO.\nThe two-wave method of determining pHi was used based on the ratio intensities of fluorescence of the cells on two wavelengths (Akatov V. S. et all), “Endocellular pH and substrate dependence of proliferation of fibroblasts of Chinese hamster, Cytology, 1991, 33 (7), p. 86-94). The fluorescence was excited by light at λ=490 nm, the emission was recorded simultaneously with two photomultipliers on wavelengths λ=535 nm and λ=570 nm. The K-ratio of the fluorescence on two wavelengths was determined with a deduction of the background fluorescence of the medium near the investigated cells for 40-60 individual cells, which are then averaged taking into account the measurement error. A thermostatically controlled table was used that allowed measurements to be conducted at a temperature of 37° C. An account was taken for the photodynamic damage of the pigmented cells during long-time continuous illumination by excited light. The readings were taken from a section of the preparation exposed to light for not more than 5 minutes.\nThe calibration curves for determining the absolute pHi values by magnitude K were constructed using the Thomas technique (Thomas J. A., Bushbaum R. N., Zimniak A. w Racker E. “Intracellular pH measurements in Ehrlich ascites tumor cells utilizing spectroscopic probe generated in situ”, Biochemistry, 1979, v. 18, p. 2210-2218), for which case the pigmented cells treated for 5-10 minutes with carboxyacidic nigericyn (Calbiochem) at a concentration of 5-10 mkg/ml was placed in a solution with a high content of potassium—130 mM KCl, 1.0 mM MgCl2, 20.0 mM of HEPES) and with pH values from 6.2 to 7.6. The K values were measured in the media with different pH assuming that pHi of the cells equals to the pH of the medium due to the action of nigericyn, which exchanges potassium ions for protons and at a high content of potassium in the medium counterbalances the pH of the medium and cells. Calibration curves were used based on the fluorescence of same medium with addition of 5.0 mkM of fluorescence or BCECF were used to the control the stability of the of the instrument readings.\nThe cells were colored by pigment BCECF-AM and pHi was measured 10 minutes after incubation in the medium with an appropriate pH value. […]"}, "[3]": {"system": "embryonic fibroblasts of mouse NIH-3T3", "conditions": "cells of mice NSO and NIH-3T3, 1-5 mkM, within 15-20 minutes; cited from earlier work"}, "[4]": {"system": "Ca^2+-dependent isoform NOC", "assay": "Morphine abstinence model: calcium-dependent NOC in liver", "type": "in vivo, rats Wistar", "conditions": "administration of morphine (FIG. 13)"}, "[5]": {"assay": "Morphine abstinence model: thymus condition (mass, nitrites)", "type": "in vivo, rats", "conditions": "Administration of morphine; control 230 ± 14", "excerpt": "The spectrometric method is based the reaction of nitrites with the Griss reagent (a mixture of 2% solution of sulfanilamide and 0.2% N-(1-naphthyl)ethylene diamine. At the first step the nitrite reacts with sulfanilamide with formation of diazonium salt, and then with the second component to form azo dye with an adsorption maximum at 540 nm. For reduction of nitrates into nitrites, a fermentative method was used with bacterial reductase nitrate (Grisham M. B. et al., 1995). The samples of plasma and supernathant of the liver deproteinizated at 100° C. for 5 minutes incubated for 30 minutes at 37° C. in 50.0 mM of HEPES pH 7.4 in the presence of 0.2 unit/ml of Aspergillus reductase nitrate, 5.0 mkM of FAD and 0.1 mM of NAD-Ph. At the end of the reaction lactate dehydrogenase and pyruvate were added for isolation of NAD-Ph interfering with the Griss reaction. Then the Griss reagent was added and after 10-minute incubation the light absorption of the samples was measured at 540 nm. To amount of NOX^− was calculated using sodium nitrate as a standard.\nThe effect of the compounds according to the invention on the condition of the thymus of the rats was also investigated: a control group, an experimental group of morphinized animals and an experimental group of animals were first morphinized and then injected with the compounds according to the invention. The experiment was carried out similarly to that described above."}, "[6]": {"system": "Ca^2+-independent isoform NOC", "assay": "Morphine abstinence model: calcium-independent NOC in liver", "type": "in vivo, rats Wistar", "conditions": "administration of morphine (FIG. 13)"}, "[7]": {"system": "synthase of nitrogen oxide (NOC)", "assay": "Morphine abstinence model: activity of synthase of nitrogen oxide (NOC), radiometric [3H]L-citrulline method", "type": "in vivo, rats Wistar", "conditions": "morphinized rats (FIG. 13)"}},
  "data": [
    {"smiles": "Nc1cccc2c(=O)n([C@@H]3O[C@H](CO)[C@@H](O)[C@H]3O)[nH]c(=O)c12.[Na]", "note": "[Compound 10, sodium salt of 5-amino-2-(CP (β-D-ribofuranosile)benzo[d]-3H-pyridazine-1,4-dione]", "values": [
      {"measurement": "MA - fall of optical density of plasma, % to the standard", "setting": "thrombocytes; 10^−3 M, control 60.8 ± 3.4", "value": "46.2 ± 2.7", "unit": "%"},
      {"measurement": "MA - fall of optical density of plasma, % to the standard", "setting": "thrombocytes; 10^−4 M, control 60.0 ± 2.1", "value": "48.7 ± 2.4", "unit": "%"},
      {"measurement": "MA - fall of optical density of plasma, % to the standard", "setting": "thrombocytes; 10^−5 M, control 52.5 ± 2.1", "value": "40.2 ± 4.0", "unit": "%"},
      {"measurement": "MA - drop of optical density, %", "setting": "thrombocytes; 10^−6 M, control 52.8 ± 1.8", "value": "48.4 ± 2.4", "unit": "%"},
      {"measurement": "MA - drop of optical density, %", "setting": "thrombocytes; 10^−7 M, control 51.5 ± 2.1", "value": "49.8 ± 2.0", "unit": "%"},
      {"measurement": "number of electrons participating in the reduction reaction", "setting": "[1]; calculated with Geirovsky-Ilkovich equation", "value": 4.09},
      {"measurement": "i", "setting": "[1]; pH 7.0", "value": "0.23 ± 0.03", "unit": "mkA"},
      {"measurement": "−E1/2", "setting": "[1]; pH 7.0", "value": "0.092 ± 0.02", "unit": "V"},
      {"measurement": "i", "setting": "[1]; pH 7.2", "value": "0.30 ± 0.01", "unit": "mkA"},
      {"measurement": "−E1/2", "setting": "[1]; pH 7.2", "value": "0.09 ± 0.01", "unit": "V"},
      {"measurement": "i", "setting": "[1]; pH 7.4", "value": "0.29 ± 0.02", "unit": "mkA"},
      {"measurement": "−E1/2", "setting": "[1]; pH 7.4", "value": "0.092 ± 0.02", "unit": "V"},
      {"measurement": "i", "setting": "[1]; pH 7.6", "value": "0.31 ± 0.02", "unit": "mkA"},
      {"measurement": "−E1/2", "setting": "[1]; pH 7.6", "value": "0.09 ± 0.01", "unit": "V"},
      {"measurement": "half-wave potential more positive at reverse stroke compared to forward stroke", "setting": "[1]; polarograms of reverse stroke", "value": 30.0, "unit": "mV"}
    ]},
    {"smiles": "CC[C@@]1([C@@H]2O[C@@H]([C@H]3O[C@@](O)(CO)[C@H](C)C[C@@H]3C)C[C@@H]2C)CC[C@H]([C@]2(C)CC[C@]3(C[C@H](O)[C@@H](C)[C@@H]([C@@H](C)[C@@H](OC)[C@H](C)C(=O)O)O3)O2)O1", "note": "[monensine, reference compound]", "values": [
      {"measurement": "rise of pHi", "setting": "[2]", "value": 0.12, "unit": "pH unit"},
      {"measurement": "increase of pHi", "setting": "[3]", "value": 0.2, "unit": "unit"}
    ]},
    {"smiles": "CN1CC[C@]23c4c5ccc(O)c4O[C@H]2[C@@H](O)C=C[C@H]3[C@H]1C5", "note": "[Morphine, morphine, reference compound]", "values": [
      {"measurement": "activity of the calcium-dependent form NOC in the liver", "setting": "[4]", "value": "rise of activity"},
      {"measurement": "Thymus mass", "setting": "[5]", "value": "145 ± 9", "unit": "mg"},
      {"measurement": "activity of the calcium-independent form NOC in the liver", "setting": "[6]", "value": "decrease of activity"},
      {"measurement": "total NOC activity in the liver compared to the control", "setting": "[7]", "value": "did not change"}
    ]},
    {"smiles": "O=c1[nH]n([C@@H]2O[C@H](CO)[C@@H](O)[C@H]2O)c(=O)c2ccccc12.[Na]", "note": "[Compound 9, sodium salt of 2-(β-D-ribofuranosile)benzo[d]-3H-pyridazine-1,4-dione]", "values": [
      {"measurement": "MA - fall of optical density of plasma, % to the standard", "setting": "thrombocytes; 10^−3 M, control 60.8 ± 3.4", "value": "47.3 ± 2.0", "unit": "%"},
      {"measurement": "MA - fall of optical density of plasma, % to the standard", "setting": "thrombocytes; 10^−4 M, control 60.0 ± 2.1", "value": "53.1 ± 1.8", "unit": "%"},
      {"measurement": "MA - fall of optical density of plasma, % to the standard", "setting": "thrombocytes; 10^−5 M, control 52.5 ± 2.1", "value": "41.4 ± 3.4", "unit": "%"},
      {"measurement": "MA - drop of optical density, %", "setting": "thrombocytes; 10^−6 M, control 52.8 ± 1.8", "value": "49.4 ± 3.2", "unit": "%"},
      {"measurement": "MA - drop of optical density, %", "setting": "thrombocytes; 10^−7 M, control 51.5 ± 2.1", "value": "51.2 ± 1.7", "unit": "%"}
    ]}
  ]
}
